From patent publication US12134664B2, “Muramyl peptide derivatives” (Bharat Biotech International Limited, priority 2015, dated 2024)
≈ marks a conversion by molar mass, not a printed value.

How the values were obtained:
human NOD2 = molecular target: T1, human NOD2 (Homo sapiens, UniProt Q9HC29); test: NOD2 specific reporter assay (SEAP, Quanti blue); assay type: cell-based; settings: HEK-Blue Human NOD2 reporter cells, 24-72 hrs, read-out: EC50 (half maximal response) (converted)
T1 construct: host or cells: HEK-Blue Human NOD2 reporter cells (HEK 293)
T1 sequence (Q9HC29 whole entry): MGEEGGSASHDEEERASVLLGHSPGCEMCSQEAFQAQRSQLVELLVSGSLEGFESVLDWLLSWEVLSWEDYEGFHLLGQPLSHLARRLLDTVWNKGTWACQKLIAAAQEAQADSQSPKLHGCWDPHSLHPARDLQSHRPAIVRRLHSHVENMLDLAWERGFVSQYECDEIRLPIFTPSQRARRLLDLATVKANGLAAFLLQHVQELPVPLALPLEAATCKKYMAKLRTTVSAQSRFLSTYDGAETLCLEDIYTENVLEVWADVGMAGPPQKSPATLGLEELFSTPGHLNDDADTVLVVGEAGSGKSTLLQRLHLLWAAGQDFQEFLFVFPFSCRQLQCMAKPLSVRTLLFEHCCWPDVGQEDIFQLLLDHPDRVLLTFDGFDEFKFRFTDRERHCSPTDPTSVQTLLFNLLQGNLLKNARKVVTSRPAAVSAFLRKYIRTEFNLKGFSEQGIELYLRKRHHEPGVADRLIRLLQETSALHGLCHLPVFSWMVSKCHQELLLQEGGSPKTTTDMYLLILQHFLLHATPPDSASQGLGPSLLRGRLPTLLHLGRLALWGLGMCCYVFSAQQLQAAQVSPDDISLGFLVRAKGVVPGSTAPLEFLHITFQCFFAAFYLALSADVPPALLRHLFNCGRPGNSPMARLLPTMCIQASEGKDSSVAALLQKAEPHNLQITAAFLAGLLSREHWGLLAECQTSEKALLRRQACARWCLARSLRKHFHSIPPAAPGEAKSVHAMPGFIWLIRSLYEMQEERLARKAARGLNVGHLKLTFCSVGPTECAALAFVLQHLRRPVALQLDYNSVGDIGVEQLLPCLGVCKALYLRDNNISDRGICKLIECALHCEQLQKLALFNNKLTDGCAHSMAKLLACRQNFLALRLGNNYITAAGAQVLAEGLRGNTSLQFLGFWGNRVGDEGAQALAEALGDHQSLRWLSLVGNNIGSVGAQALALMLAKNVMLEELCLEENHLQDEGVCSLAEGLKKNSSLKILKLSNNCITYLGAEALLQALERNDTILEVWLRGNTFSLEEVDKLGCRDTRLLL
Procedure: Muramyl dipeptide molecules have the ability to bind to NOD2 receptors that are present on the surface of the immune cells, so as to stimulate immune response. NOD2 (Nucleotide oligomerization domain) receptor is an intracellular pattern recognition receptor (PRRs) recognizes muramyl dipeptide derivatives and stimulates cascade of signaling pathways to induce immune response. […] These cells were prepared by co-transfection of human NOD2 gene and codon-optimized SEAP (secreted embryonic alkaline phosphatase) reporter gene into HEK 293 cells. Upon stimulation of cells with muramyl dipeptide derivative, NFkB gets activated, which inturn secrets SEAP and it was measured in cell supernatant. Experimental details of this in-vitro assay are given as example 2.1.
HEK—Blue Human NOD2 reporter cells (5×10^4/well) were plated and cultured overnight in a humidified CO2 incubator at 37° C. Next day, cells were treated with various concentrations of MDP-ET, (0.001 mg/ml to 1 mg/ml) and cultured for 24-72 hrs. Supernatant was collected and treated with Quanti blue detection reagent at 37° C. for 15-30 min. Absorbance was read at 630 nm. […] To generate dose response curve, highest absorbance shown at tested concentration was taken as 100% response and the least absorbance was taken as 0% response. […]

[1] = tested on: HBsAg specific IgG antibody; test: Endpoint titer of HBsAg specific total IgG by ELISA after immunization; assay type: in vivo, BALB/c mice; settings: for HBsAg specific IgG antibody endpoint titer: i.m. Day 0 & 28, Day 42 sera
Procedure: Female BALB/c mice (6-8 week old, n=6/group) were vaccinated intramuscularly (i.m, at two quadriceps) on Day 0 & Day 28 with vehicle control or Hepatitis B antigen (20 μg/mouse/dose/100 μl, 50 μl per quadricep) with and without MDP-ET (10 μg or 50 μg/mouse/dose/100 μl) diluted in Phosphate buffered saline. Prior to immunization, Hepatitis B surface antigen was mixed with MDP-ET, by gentle agitation (1:1 ratio), under sterile conditions. Mice were bled and euthanized on Day 42. Blood was collected & serum was isolated to evaluate analyze antigen specific total IgG antibody titer (as in example 3.1.2) and antibody subclasses (isotypes namely IgG1 or IgG2a or IgG3, as in example 3.1.3).
Serial dilutions of individual serum samples ([…] ranging from 1:50 to 819200) were used to determine the endpoint titer of antigen specific total IgG antibody titer by ELISA. Details of assay protocol as described below, For analysis of antigen specific antibody titer, hepatitis B surface antigen was suspended in 50 mM carbonate bicarbonate buffer, pH 9.6 and coated at a concentration (lug/ml, 100 μl/well) in 96 well plates and kept at 4° C. for overnight. Next day, plates were washed with washing buffer (PBST-Phosphate buffered saline, pH 7.4 with 0.05% Tween) and blocked with blocking buffer (PBS with 1% BSA) at RT for 1-2 hr. ELISA plates were washed again with wash buffer (PBS, 0.1% Tween™20) and added serially diluted (in PBS, 0.1% BSA, 0.05% Tween™20, 0.02% sodium azide) sera from hyper immunized mice and incubated at RT for 1 hr. After incubation, wells were again washed and added Goat Anti-mouse IgG HRP conjugate antibody at a dilution of 1:5000 & incubated for 1 hr at RT. Later, wells were washed, and developed with OPD (O-phenylene diamine) as a substrate for 15 min. Reaction was stopped using 2N H2SO4. Absorbance was read at 490 nm. Threshold (Mean+3SD) was established by taking the absorbance of negative control (PBS) group, followed by the reactive index (ratio of absorbance at a particular dilution & threshold), so as to determine end point titer. Based on this calculation, highest dilution at which reactive index value[…] was considered as endpoint antibody titer dilution. Antigen specific antibody endpoint titer in the presence & absence of MDP-ET was represented as in FIG. 5a.

[2] = tested on: IgG isotypes (IgG1, IgG2a & IgG3) raised against HBsAg; test: TH1:TH2 index from HBsAg specific IgG isotypes; assay type: in vivo, BALB/c mice; settings: HBsAg in the presence of MDP-ET (10 & 50 μg/mouse)
Text: It is known that IgG subclasses produced after the immunization against given antigen, primarily determines the function of the antibody or indirectly measures the relative contribution of TH1 versus TH2 type cytokine induction. More specifically, production of IgG1 antibodies induces TH2 type cytokines, whereas production of IgG2a & IgG3 antibodies induces TH1 type cytokines. […] In this context, in the present invention, we determined the levels of IgG isotypes (IgG1, IgG2a & IgG3), raised against HBsAg in the presence or absence of MDP-ET (at 10 μg/mouse & 50 μg/mouse) and calculated TH1:TH2 index then calculated as ([IgG2a+IgG3]/2)/(IgG1). Details of assay protocol as described below as in example 3.1.3. According to such calculation, an index value less than 1 stands for a TH2 polarization; an index value greater than 1 stands for a TH1 polarization.
Analysis of antigen specific IgG antibody subclasses (isotypes namely IgG1 or IgG2a or IgG3) was performed as mentioned in example 3.1.2, except at one step, where goat anti-mouse IgG1 or IgG2a or IgG3 HRP was used at a dilution of 1:5000 (in place of goat anti-mouse IgG) TH1:TH2 index obtained at 10 & 50 μg/mouse of MDP-ET is as shown in FIG. 5c.

Wistar rats = test: Maximum Tolerated Dose test; assay type: in vivo
Procedure: This particular beneficial property was evidenced by Maximum Tolerated Dose test done using rat as an animal model.
Maximum Tolerated Dose test: Wistar rats (n=6, 3M & 3F) were administered intramuscularly (i.m) with MDP-ET containing fixed adjuvant dose of 10, 50 and 100 μg/animal/200 μl in an ascending manner. Animals were observed daily for a period of 14 days for clinical signs & mortality. Body weight was measured daily. Food and water consumed by animals were also monitored daily for any abnormalities & food and water intake per animal was also calculated. Body temperature was measured for every 4 hours up to 24 hrs, later once in daily up to 7 days and then followed by alternate day up to day 14. Rats were sacrificed on day 14 and organs/tissues such as site of injection, spleen, thymus, brain, lungs, Heart, liver, Kidney were collected and done macroscopic examination. […] It indicates rats are tolerable even at high dose (100 μg/animal). Blood was collected between 24-36 hrs were tested for CRP levels, after the injection. Higher (600-1000 μg/ml, normal range 200-550 μg/ml in rats) CRP levels were found at higher dose (100 μg/animal).
However, due to moderate or high levels of IL-6 levels as found in In-vitro pyrogenicity test, it can be concluded that MDP-ET may be pyrogenic at tested high concentration (100 μg/animal), which in turn correlated with high levels of CRP found immediately after giving dose.

[3] = tested on: Total IgG1 and IgG2a antibodies; test: Total IgG1 and IgG2a in sera of OVA-immunized mice (sandwich ELISA); assay type: in vivo, BALB/c mice
Procedure: Male BALB/c mice were immunized subcutaneously with OVA 100 μg alone or with OVA 100 μg dissolved in saline containing the MDP or MDP-ET analogues (7.5, 15 or 30 μg) on Days 1 and 15. Sera were collected 2 weeks after the last immunization. Total IgG1 and IgG2a antibodies in the sera were measured by Sandwich ELISA.
Measurement of total IgG subtypes such as IgG1 and IgG2a are useful to assess type immunity produced. In mice, IgG1 is integrated with Th2-type response, while Th1-type response is integrated with the production of IgG2a, IgG2b, and IgG3 antibodies. Antibody subclass is indispensable for complement fixation and provides protection. IgG2a and IgG2b can fix the complement stronger than IgG1. Vaccine adjuvants showing broad subclass distribution is beneficial against pathogens. […] But, it didn't induce much significant IgG1 response i.e., Th2 type, than MDP+OVA group.

[4] = tested on: rPvRII specific IgG antibody; test: Endpoint titer of rPvRII specific IgG by ELISA after immunization; assay type: in vivo, mouse
splenocytes = test: Splenocyte proliferation of immunized mice (MTT); assay type: in vivo; settings: LPS and Con A
Procedure: Spleens were isolated from immunized mice and were processed to single cell suspension. 96 well flat bottom Micro titer plates were seeded with 1×10^5 cells/well with RPMI1640 media. Cells were treated with OVA. Con A (2 μg/mL) and LPS (10 μg/mL) or medium with a final volume of 200 μl. Plates were incubated at 37° C. with 5% CO2 in an incubator. After 48 h of incubation 20 μl of Triazolyl blue Tetrazolium Bromide (MTT) solution was added to each well, incubated for next 4 h. Untransformed MTT was removed from each well by aspirating the supernatant (180 μL) and replaced with DMSO. The absorbance was read at 570 nm after 15 min.
Immunostimulating substances act through specific (antigen-dependent) T lymphocytes, B lymphocytes, and dendritic cells and also through non-specific mechanisms of action (antigen-independent) that involves granulocytes, macrophages, and NK cells. Being a secondary lymphoid organ, spleen contains a heterogeneous population of lymphocytes to examine the immunostimulant activity. However, proliferations of immune cells like T and B cells are the benchmark for immune potentiation. Mice were immunized with or without OVA or in combination with MDP and MDP-ET. Type of immune response in all treated groups was measured with LPS and Con-A splenocyte proliferation assays depicted in Figure: 3. […] This is essential for B cell expansion.

J774.2A cells = test: Cytotoxicity assay (MTT); assay type: cell-based; settings: 24 hrs, read-out: IC50 (50% cell death or toxicity)
Procedure: Details of an assay are as explained in example 2.2.
J774.2A cells (2×10^4/well) were plated and incubated overnight. Next day, cells were treated with various concentrations of MDP-ET (10 fold dilutions with a concentration ranging from 0.005 mg/ml to 0.5 mg/ml & 2 mg/ml) and cultured for 24 hrs. Supernatant was discarded and cells were treated with 100 μl of MTT [3-(4,5-Dimethylthiazol-2-yl)-2,5-Diphenyltetrazolium Bromide] (5 mg/ml) and incubated for 3-4 hrs until formozan crystals were formed. Later, supernatant was discarded and crystals were dissolved with DMSO for 5-10 min. Absorbance was read at 540 nm. FIG. 2 represents cell toxicity effect of MDP-ET. X-axis represents concentration in log scale and Y-axis represents % toxicity.

[5] = tested on: OVA-specific IgG antibodies; test: OVA-specific IgG in sera of immunized mice (indirect ELISA); assay type: in vivo, BALB/c mice; settings: OVA 100 μg alone, s.c. Days 1 and 15, sera 2 weeks after last immunization
Procedure: Male BALB/c mice were immunized subcutaneously with OVA 100 μg alone or with OVA 100 μg dissolved in saline containing analogues (7.5, 15 or 30 μg) on Days 1 and 15. Sera were collected 2 weeks after the last immunization. OVA-specific IgG antibodies in the sera were measured by an Indirect ELISA.

CCOC(=O)N[C@H]1C(O)O[C@H](CO)[C@@H](O)[C@@H]1O[C@H](C)C(=O)N[C@@H](C)C(=O)N[C@H](CCC(=O)O)C(N)=O (stereo partly drawn) [MDP-ET, (4R)-5-amino-4-((2S)-2-((2R)-2-(((3R,4R,5S,6R)-3-((ethoxycarbonyl)amino)-2,5-dihydroxy-6-(hydroxymethyl)tetrahydro-2H-pyran-4-yl)oxy)propanamido)propanamido)-5-oxopentanoic acid]
EC50 (human NOD2): 421 nM
increase of HBsAg specific IgG antibody titer versus HBsAg alone ([1]; MDP-ET 10 μg/mouse): 4 fold
HBsAg specific IgG antibody endpoint titer ([1]; MDP-ET 10 μg/mouse + HBsAg 20 μg): 51200 dilution
increase of HBsAg specific IgG antibody titer versus HBsAg alone ([1]; MDP-ET 50 μg/mouse): 8 fold
HBsAg specific IgG antibody endpoint titer ([1]; MDP-ET 50 μg/mouse + HBsAg 20 μg): 204800 dilution
increase of humoral response (TH2), dose dependent ([1]; mice vaccinated with HBsAg in the presence of MDP-ET (10 and 50 μg/mouse)): 4-8 fold
TH1:TH2 index ([IgG2a+IgG3]/2)/(IgG1) [2]: 10
CRP levels (Wistar rats; 100 μg/animal, blood 24-36 hrs after injection, normal range 200-550 μg/ml in rats): 600 to 1000 µg/mL
tolerated dose (Wistar rats; Wistar rats, i.m., 14 days observation): ≥ 100 μg/rat
CRP levels (Wistar rats; after 14 days): normal
macroscopic examination of organs/tissues (Wistar rats; day 14, site of injection, spleen, thymus, brain, lungs, heart, liver, kidney): No significant lesions or abnormalities
clinical signs (Wistar rats; even at tested high dose (100 μg/animal), 14 days): no significant clinical signs
weight gain (Wistar rats; high dose (100 μg/animal), compared to untreated animals): weight gain is less
mortality (Wistar rats; i.m. 10, 50 and 100 μg/animal, 14 days): no mortality
body temperature (Wistar rats; up to 14 days): no temperature raise
Th1:Th2 index from antibody titer of ova specific IgG subclasses ([3]; OVA-immunized mice): 1
increase of rPvRII specific IgG antibody titer versus rPvRII alone ([4]; MDP-ET 10 μg/mouse): 4 fold
rPvRII specific IgG antibody endpoint titer ([4]; MDP-ET 10 μg/mouse + rPvRII): 51200 dilution
Splenocyte proliferation (splenocytes): inducing the LPS mediated splenocyte proliferation
IC50 (J774.2A cells): 410 µg/mL (≈ 785 µM)

B1: OVA: Ovalbumin (OVA) antigen, given alone (protein, UniProt P01012 2-386, looked up)
Ovalbumin: GSIGAASMEFCFDVFKELKVHHANENIFYCPIAIMSALAMVYLGAKDSTRTQINKVVRFDKLPGFGDSIEAQCGTSVNVHSSLRDILNQITKPNDVYSFSLASRLYAEERYPILPEYLQCVKELYRGGLEPINFQTAADQARELINSWVESQTNGIIRNVLQPSSVDSQTAMVLVNAIVFKGLWEKAFKDEDTQAMPFRVTEQESKPVQMMYQIGLFRVASMASEKMKILELPFASGTMSMLVLLPDEVSGLEQLESIINFEKLTEWTSSNVMEERKIKVYLPRMKMEEKYNLTSVLMAMGITDVFSSSANLSGISSAESLKISQAVHAAHAEINEAGREVVGSAEAGVDAASVSEEFRADHPFLFCIKHIATNAVLFFGRCVSP
Log(2) Total IgG1 Antibody Titre ([3]; OVA 100 μg alone): 14.39
Log(2) Total IgG2a Antibody Titre ([3]; OVA 100 μg alone): 11.89
Log(2) IgG Antibody Titre [5]: 12.64
